In ChEMBL document CHEMBL1126299, “Synthesis and structure-activity relationships of cephalosporins with C-3' catechol-containing residues” (J Med Chem, 1992):
≈ marks a conversion by molar mass, not a printed value.

Legend:
Escherichia coli [1] = test: microbe, parasite or virus in culture
Description: In vitro minimum inhibitory concentration against Escherichia coli (DC2 permeability mutant).

Citrobacter freundii [2] = test: microbe, parasite or virus in culture
Description: Minimum inhibitory concentration in Citrobacter freundii, I+382010 inducible type 1 lactamase producer

Pseudomonas aeruginosa [3] = test: microbe, parasite or virus in culture
Description: Minimum inhibitory concentration in Pseudomonas aeruginosa,799/61 permeability mutant

Staphylococcus aureus [4] = test: microbe, parasite or virus in culture
Description: The compound was tested for minimum inhibitory concentration in Staphylococcus aureus Oxford penicillin sensitive Staphylococcus aureus

Citrobacter freundii [5] = test: microbe, parasite or virus in culture; remark: listed apart in the source
Description: Minimum inhibitory concentration in Citrobacter freundii, DR 382031 constitutive depressed type 1

Enterobacter cloacae [6] = test: microbe, parasite or virus in culture
Description: Minimum inhibitory concentration in Enterobacter cloacae, P99- inducible type 1 lactamase producer

Enterobacter cloacae [7] = test: microbe, parasite or virus in culture; remark: listed apart in the source
Description: Minimum inhibitory concentration in Enterobacter cloacae, I+401029 inducible type 1 lactamase producer

Enterobacter cloacae [8] = test: microbe, parasite or virus in culture; remark: listed apart in the source
Description: Minimum inhibitory concentration in Enterobacter cloacae, DR 401108 constitutive depressed type 1 lactamase producer

Pseudomonas aeruginosa [9] = test: microbe, parasite or virus in culture; remark: listed apart in the source
Description: Minimum inhibitory concentration in Pseudomonas aeruginosa, 18SH constitutive depressed type 1 lactamase producer

Providencia stuartii [10] = test: microbe, parasite or virus in culture
Description: Minimum inhibitory concentration in Pseudomonas stuartii, DR 442049 constitutive depressed type 1 lactamase producer

Pseudomonas aeruginosa [11] = test: microbe, parasite or virus in culture; remark: listed apart in the source
Description: In vitro minimum inhibitory concentration against Pseudomonas aeruginosa (PU21).

[12] = The half life period in marmosets; format: ADME; conditions: callithrix, in vivo
[13] = The compound was evaluated for area under the curve in marmosets; format: ADME; conditions: callithrix, in vivo
Pseudomonas aeruginosa [14] = test: microbe, parasite or virus in culture; remark: listed apart in the source
Description: Minimum inhibitory concentration in Pseudomonas aeruginosa,799WT parent organism

Escherichia coli [15] = test: microbe, parasite or virus in culture; remark: listed apart in the source
Description: In vitro minimum inhibitory concentration against Escherichia coli (DC0 parent organism).

Staphylococcus aureus [16] = test: microbe, parasite or virus in culture; remark: listed apart in the source
Description: The compound was tested for minimum inhibitory concentration in Staphylococcus aureus,147N penicillin sensitive Staphylococcus aureus

Pseudomonas aeruginosa [17] = test: microbe, parasite or virus in culture; remark: listed apart in the source
Description: Minimum inhibitory concentration in Pseudomonas aeruginosa, 18S inducible type 1 lactamase producer

Enterobacter cloacae [18] = test: microbe, parasite or virus in culture; remark: listed apart in the source
Description: Minimum inhibitory concentration in Enterobacter cloacae, P99+ constitutive depressed type 1 lactamase producer

Providencia stuartii [19] = test: microbe, parasite or virus in culture; remark: listed apart in the source
Description: Minimum inhibitory concentration in Pseudomonas stuartii, I+442019 inducible type 1 lactamase producer

Description for physchem: The dissociation constant of compound was tested for beta-Lactamase stability

SMILES | pKa (physchem) | MIC (Escherichia coli [1]) [µg/mL] | MIC (Citrobacter freundii [2]) [µg/mL] | MIC (Pseudomonas aeruginosa [3]) [µg/mL] | MIC (Staphylococcus aureus [4]) [µg/mL] | MIC (Citrobacter freundii [5]) [µg/mL] | MIC (Enterobacter cloacae [6]) [µg/mL] | MIC (Enterobacter cloacae [7]) [µg/mL] | MIC (Enterobacter cloacae [8]) [µg/mL] | MIC (Pseudomonas aeruginosa [9]) [µg/mL] | MIC (Providencia stuartii [10]) [µg/mL] | MIC (Pseudomonas aeruginosa [11]) [µg/mL] | half-life [12] [h] | AUC [13] [mg/h/L] | MIC (Pseudomonas aeruginosa [14]) [µg/mL] | MIC (Escherichia coli [15]) [µg/mL] | MIC (Staphylococcus aureus [16]) [µg/mL] | MIC (Pseudomonas aeruginosa [17]) [µg/mL] | MIC (Enterobacter cloacae [18]) [µg/mL] | MIC (Providencia stuartii [19]) [µg/mL]
CC(C)(O/N=C(\C(=O)N[C@@H]1C(=O)N2C(C(=O)O)=C(CNC(=O)c3cc(O)c(O)c(Cl)c3)CSC12)c1csc(N)n1)C(=O)O (stereo not given in full) | 7 | 0.008 (≈ 0.0122 µM) | 0.008 (≈ 0.0122 µM) | 0.008 (≈ 0.0122 µM) | 16 (≈ 24.4 µM) | 4 (≈ 6.11 µM) | 0.06 (≈ 0.0916 µM) | 0.06 (≈ 0.0916 µM) | 16 (≈ 24.4 µM) | 0.003 (≈ 0.00458 µM) | 2 (≈ 3.05 µM) | 0.008 (≈ 0.0122 µM) | 4.57 | 638.3 | 0.008 (≈ 0.0122 µM) | 0.008 (≈ 0.0122 µM) | 16 (≈ 24.4 µM) | 0.008 (≈ 0.0122 µM) | 4 (≈ 6.11 µM) | 0.03 (≈ 0.0458 µM)
CC(=O)Oc1ccc(C(=O)OCC2=C(C(=O)O)N3C(=O)[C@@H](NC(=O)Cc4cccs4)C3SC2)cc1OC(C)=O (stereo not given in full) |  | 0.03 (≈ 0.0522 µM) | 16 (≈ 27.8 µM) | 0.125 (≈ 0.218 µM) | 0.03 (≈ 0.0522 µM) | > 128 | 16 (≈ 27.8 µM) | 128 (≈ 223 µM) |  | > 128 | > 128 | > 128 |  |  | > 128 | 0.5 (≈ 0.87 µM) | 0.06 (≈ 0.104 µM) | > 128 | > 128 | 64 (≈ 111 µM)
CCO/N=C(\C(=O)N[C@@H]1C(=O)N2C(C(=O)O)=C(CNC(=O)c3ccc(O)c(O)c3)CSC12)c1csc(N)n1 (stereo not given in full) |  | 0.008 (≈ 0.0142 µM) | 0.06 (≈ 0.107 µM) | 0.015 (≈ 0.0267 µM) | 2 (≈ 3.56 µM) | > 128 | 0.5 (≈ 0.889 µM) | 0.25 (≈ 0.444 µM) | 128 (≈ 228 µM) | 64 (≈ 114 µM) | 1 (≈ 1.78 µM) | 0.25 (≈ 0.444 µM) |  |  | 0.06 (≈ 0.107 µM) | 0.06 (≈ 0.107 µM) | 4 (≈ 7.11 µM) | 0.03 (≈ 0.0533 µM) | 64 (≈ 114 µM) | 0.5 (≈ 0.889 µM)
CC(C)(O/N=C(/C(=O)N[C@@H]1C(=O)N2C(C(=O)O)=C(COC(=O)c3ccc(O)c(O)c3)CSC12)c1csc(N)n1)C(=O)O (stereo not given in full) |  | 0.008 (≈ 0.0129 µM) | 0.03 (≈ 0.0483 µM) | 0.008 (≈ 0.0129 µM) | 4 (≈ 6.43 µM) | 8 (≈ 12.9 µM) | 0.5 (≈ 0.804 µM) | 0.06 (≈ 0.0965 µM) | > 128 | 0.125 (≈ 0.201 µM) | 4 (≈ 6.43 µM) | 0.3 (≈ 0.483 µM) |  |  | 0.008 (≈ 0.0129 µM) | 0.008 (≈ 0.0129 µM) | 8 (≈ 12.9 µM) | 0.008 (≈ 0.0129 µM) | 4 (≈ 6.43 µM) | 0.125 (≈ 0.201 µM)
CCN(CC1=C(C(=O)O)N2C(=O)[C@@H](NC(=O)/C(=N\OC(C)(C)C(=O)O)c3csc(N)n3)C2SC1)C(=O)c1cc(O)c(O)c(C#N)c1 (stereo not given in full) |  |  | 0.008 (≈ 0.0119 µM) | 0.008 (≈ 0.0119 µM) |  | 1 (≈ 1.48 µM) | 0.06 (≈ 0.0891 µM) | 0.015 (≈ 0.0223 µM) | 1 (≈ 1.48 µM) | 0.125 (≈ 0.186 µM) | 16 (≈ 23.7 µM) |  |  |  | 0.008 (≈ 0.0119 µM) |  |  | 0.008 (≈ 0.0119 µM) | 1 (≈ 1.48 µM) | 0.25 (≈ 0.371 µM)
C=C(CO/N=C(\C(=O)N[C@@H]1C(=O)N2C(C(=O)O)=C(CNC(=O)c3cc(O)c(O)c(Br)c3)CSC12)c1csc(N)n1)C(=O)O (stereo not given in full) |  | 0.008 (≈ 0.0115 µM) | 0.008 (≈ 0.0115 µM) | 0.008 (≈ 0.0115 µM) | 16 (≈ 22.9 µM) | 16 (≈ 22.9 µM) | 0.06 (≈ 0.086 µM) | 0.06 (≈ 0.086 µM) | > 32 | 0.05 (≈ 0.0717 µM) | 2 (≈ 2.87 µM) | 0.03 (≈ 0.043 µM) |  |  | 0.008 (≈ 0.0115 µM) | 0.008 (≈ 0.0115 µM) | 16 (≈ 22.9 µM) | 0.008 (≈ 0.0115 µM) | 8 (≈ 11.5 µM) | 0.03 (≈ 0.043 µM)
CC(C)(O/N=C(\C(=O)N[C@@H]1C(=O)N2C(C(=O)O)=C(CCNC(=O)Nc3ccc(O)c(O)c3)CSC12)c1csc(N)n1)C(=O)O (stereo not given in full) |  | 0.015 (≈ 0.0231 µM) | 0.25 (≈ 0.385 µM) | 0.125 (≈ 0.192 µM) | 64 (≈ 98.5 µM) | 8 (≈ 12.3 µM) | 1 (≈ 1.54 µM) | 0.5 (≈ 0.77 µM) | 64 (≈ 98.5 µM) | 0.125 (≈ 0.192 µM) | 16 (≈ 24.6 µM) | 0.125 (≈ 0.192 µM) |  |  | 0.125 (≈ 0.192 µM) | 0.06 (≈ 0.0924 µM) | 64 (≈ 98.5 µM) | 0.125 (≈ 0.192 µM) | 16 (≈ 24.6 µM) | 2 (≈ 3.08 µM)
CC(C)(O/N=C(\C(=O)N[C@@H]1C(=O)N2C(C(=O)O)=C(CNC(=O)c3cc(O)c(O)c(C#N)c3)CSC12)c1csc(N)n1)C(=O)O (stereo not given in full) |  |  | 0.008 (≈ 0.0124 µM) | 0.008 (≈ 0.0124 µM) |  | 2 (≈ 3.1 µM) | 0.06 (≈ 0.0929 µM) | 0.03 (≈ 0.0465 µM) | 8 (≈ 12.4 µM) | 0.06 (≈ 0.0929 µM) | 4 (≈ 6.2 µM) |  |  |  | 0.008 (≈ 0.0124 µM) |  |  | 0.008 (≈ 0.0124 µM) | 2 (≈ 3.1 µM) | 0.06 (≈ 0.0929 µM)
CCOC(=O)C(CC1=C(C(=O)O)N2C(=O)[C@@H](NC(=O)/C(=N\OC(C)(C)C(=O)O)c3csc(N)n3)C2SC1)C(=O)c1cc(O)c(O)c(Br)c1 (stereo not given in full) |  |  | 0.008 (≈ 0.0104 µM) | 0.008 (≈ 0.0104 µM) |  | 0.25 (≈ 0.324 µM) | 0.125 (≈ 0.162 µM) | 0.03 (≈ 0.0389 µM) | 0.25 (≈ 0.324 µM) | 0.008 (≈ 0.0104 µM) | 0.5 (≈ 0.649 µM) |  |  |  | 0.008 (≈ 0.0104 µM) |  |  | 0.008 (≈ 0.0104 µM) | 0.25 (≈ 0.324 µM) | 0.125 (≈ 0.162 µM)
